# Measured values as given in PubChem BioAssay (NCI).
#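 Each compound was tested at five concentrations against cells in 96-well plates for 48 hours. TGI: concentration producing complete growth inhibition.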
# Assays:
# Assay in all cases: NCI-60 cell line screen, 48 h
# [1] = test system: SF-295 CNS
# [2] = test system: SNB-19 CNS
# [3] = test system: IGROV1 ovarian
# [4] = test system: OVCAR-4 ovarian
# [5] = test system: NCI-H23 lung
# [6] = test system: UACC-62 melanoma
# [7] = test system: NCI-H226 lung
# [8] = test system: LXFL 529 NSCLC
# [9] = test system: SK-MEL-28 melanoma
# [10] = test system: HOP-18 NSCLC
# [11] = test system: OVCAR-5 ovarian
# [12] = test system: RPMI-8226 leukemia
# [13] = test system: KM20L2 colon
# [14] = test system: NCI-H460 lung
# [15] = test system: OVCAR-8 ovarian
# [16] = test system: SNB-75 CNS
# [17] = test system: UO-31 renal
# [18] = test system: DMS 114 small cell lung
# [19] = test system: UACC-257 melanoma
# [20] = test system: HL-60(TB) leukemia
# [21] = test system: A549 NSCLC
# [22] = test system: HCT-116 colon
# [23] = test system: HOP-92 NSCLC
# [24] = test system: MALME-3M melanoma
# [25] = test system: KM12 colon
# [26] = test system: SNB-78 CNS
# [27] = test system: U251 CNS
# [28] = test system: NCI-H522 lung
# [29] = test system: M14 melanoma
# [30] = test system: A498 renal
# [31] = test system: MOLT-4 leukemia
# [32] = test system: M19-MEL melanoma
# [33] = test system: RXF 393 renal
# [34] = test system: SW-620 colon
# [35] = test system: SF-539 CNS
# [36] = test system: DLD-1 colon
# [37] = test system: SK-OV-3 ovarian
# [38] = test system: OVCAR-3 ovarian
# [39] = test system: SF-268 CNS
# [40] = test system: CCRF-CEM leukemia
# [41] = test system: K-562 leukemia
# [42] = test system: 786-0 renal
# [43] = test system: TK-10 renal
# [44] = test system: HCT-15 colon
# [45] = test system: SK-MEL-5 melanoma
# [46] = test system: LOX IMVI melanoma
# [47] = test system: HOP-62 NSCLC
# [48] = test system: COLO 205 colon
# [49] = test system: XF 498 CNS
# [50] = test system: EKVX NSCLC
# [51] = test system: CAKI-1 renal
# [52] = test system: SN12C renal
# [53] = test system: ACHN renal
# [54] = test system: SK-MEL-2 melanoma
# [55] = test system: HCC-2998 colon
# [56] = test system: HT29 colon
# [57] = test system: SR leukemia
# [58] = test system: DMS 273 small cell lung
smiles,measurement,setting,value
CCN(C(C)=N)c1ccccc1,TGI,[1],> 100 µM
same,TGI,[2],> 100 µM
same,TGI,[3],> 100 µM
same,TGI,[4],> 100 µM
same,TGI,[5],> 100 µM
same,TGI,[6],> 100 µM
same,TGI,[7],> 100 µM
same,TGI,[8],> 100 µM
same,TGI,[9],> 100 µM
same,TGI,[10],> 100 µM
same,TGI,[11],> 100 µM
same,TGI,[12],> 100 µM
same,TGI,[13],> 100 µM
same,TGI,[14],> 100 µM
same,TGI,[15],> 100 µM
same,TGI,[16],> 100 µM
same,TGI,[17],> 100 µM
same,TGI,[18],> 100 µM
same,TGI,[19],44.3 µM
same,TGI,[20],> 100 µM
same,TGI,[21],> 100 µM
same,TGI,[22],> 100 µM
same,TGI,[23],> 100 µM
same,TGI,[24],> 100 µM
same,TGI,[25],> 100 µM
same,TGI,[26],> 100 µM
same,TGI,[27],> 100 µM
same,TGI,[28],> 100 µM
same,TGI,[29],> 100 µM
same,TGI,[30],> 100 µM
same,TGI,[31],> 100 µM
same,TGI,[32],> 100 µM
same,TGI,[33],> 100 µM
same,TGI,[34],> 100 µM
same,TGI,[35],> 100 µM
same,TGI,[36],> 100 µM
same,TGI,[37],> 100 µM
same,TGI,[38],> 100 µM
same,TGI,[39],> 100 µM
same,TGI,[40],> 100 µM
same,TGI,[41],> 100 µM
same,TGI,[42],> 100 µM
same,TGI,[43],> 100 µM
same,TGI,[44],> 100 µM
same,TGI,[45],> 100 µM
same,TGI,[46],> 100 µM
same,TGI,[47],> 100 µM
same,TGI,[48],> 100 µM
same,TGI,[49],> 100 µM
same,TGI,[50],> 100 µM
same,TGI,[51],> 100 µM
same,TGI,[52],> 100 µM
same,TGI,[53],> 100 µM
same,TGI,[54],> 100 µM
same,TGI,[55],> 100 µM
C[N+](C)(C)CC1CCCC(C[N+](C)(C)C)C1=NO (stereo not drawn),TGI,[1],> 100 µM
same,TGI,[2],> 100 µM
same,TGI,[3],> 100 µM
same,TGI,[4],> 100 µM
same,TGI,[5],> 100 µM
same,TGI,[6],> 100 µM
same,TGI,[7],> 100 µM
same,TGI,[8],> 100 µM
same,TGI,[9],> 100 µM
same,TGI,[10],> 100 µM
same,TGI,[11],> 100 µM
same,TGI,[12],> 100 µM
same,TGI,[13],> 100 µM
same,TGI,[14],> 100 µM
same,TGI,[15],> 100 µM
same,TGI,[16],> 100 µM
same,TGI,[17],> 100 µM
same,TGI,[19],> 100 µM
same,TGI,[56],> 100 µM
same,TGI,[21],> 100 µM
same,TGI,[22],> 100 µM
same,TGI,[24],> 100 µM
same,TGI,[25],> 100 µM
same,TGI,[26],> 100 µM
same,TGI,[57],> 100 µM
same,TGI,[27],> 100 µM
same,TGI,[29],> 100 µM
same,TGI,[58],> 100 µM
same,TGI,[31],> 100 µM
same,TGI,[32],> 100 µM
same,TGI,[33],> 100 µM
same,TGI,[34],> 100 µM
same,TGI,[35],> 100 µM
same,TGI,[36],> 100 µM
same,TGI,[37],> 100 µM
same,TGI,[38],> 100 µM
same,TGI,[41],> 100 µM
same,TGI,[42],> 100 µM
same,TGI,[43],> 100 µM
same,TGI,[44],> 100 µM
same,TGI,[45],> 100 µM
same,TGI,[48],> 100 µM
same,TGI,[49],> 100 µM
same,TGI,[50],> 100 µM
same,TGI,[51],> 100 µM
same,TGI,[52],> 100 µM
same,TGI,[53],> 100 µM
same,TGI,[54],> 100 µM
O=C1c2ccccc2C(=O)c2[nH]c(Cc3ccccc3F)nc21,TGI,[1],> 100 µM
same,TGI,[2],> 100 µM
same,TGI,[4],> 100 µM
same,TGI,[5],> 100 µM
same,TGI,[6],> 100 µM
same,TGI,[7],> 100 µM
same,TGI,[8],> 100 µM
same,TGI,[9],> 100 µM
same,TGI,[10],> 100 µM
same,TGI,[12],> 100 µM
same,TGI,[13],> 100 µM
same,TGI,[14],> 100 µM
same,TGI,[15],> 100 µM
same,TGI,[16],> 100 µM
same,TGI,[17],> 100 µM
same,TGI,[18],> 100 µM
same,TGI,[19],> 100 µM
same,TGI,[56],> 100 µM
same,TGI,[20],> 100 µM
same,TGI,[21],> 100 µM
same,TGI,[22],> 100 µM
same,TGI,[23],> 100 µM
same,TGI,[24],> 100 µM
same,TGI,[25],> 100 µM
same,TGI,[57],> 100 µM
same,TGI,[27],> 100 µM
same,TGI,[28],70.9 µM
same,TGI,[29],> 100 µM
same,TGI,[58],> 100 µM
same,TGI,[31],> 100 µM
same,TGI,[33],75.5 µM
same,TGI,[34],> 100 µM
same,TGI,[35],91.1 µM
same,TGI,[36],82.5 µM
same,TGI,[38],39 µM
same,TGI,[39],> 100 µM
same,TGI,[40],> 100 µM
same,TGI,[41],> 100 µM
same,TGI,[42],> 100 µM
same,TGI,[43],88.3 µM
same,TGI,[44],> 100 µM
same,TGI,[47],> 100 µM
same,TGI,[48],> 100 µM
same,TGI,[49],> 100 µM
same,TGI,[50],> 100 µM
same,TGI,[51],> 100 µM
same,TGI,[52],> 100 µM
same,TGI,[53],> 100 µM
same,TGI,[54],> 100 µM
same,TGI,[55],> 100 µM
